Data set [1] concerns S. aureus 133. Nature of the data set: microbe, parasite or virus in culture. It counts as cell-based, Staphylococcus aureus. The conditions noted are these: broth microdilution, Mueller-Hinton broth (without cation adjustment), CLSI, inoculum 5×10^4 CFU mL^−1, wild type. The method, then:
(§1) Determination of antibacterial activity: ADEP1 was purified from the culture supernatant of S. hawaiiensis NRRL 15010 as described.4 ADEPs 2, 4, 7, 9 were custom synthesised by EMC Microcollections, Tübingen, or provided by AiCuris, Wuppertal, Germany. The minimal inhibitory concentration (MIC) was determined by broth microdilution in Mueller‐Hinton broth (without cation adjustment) according to the guidelines of the Clinical Laboratory Standards Institute (CLSI).69 The inoculum was set to 5×10^4 CFU mL^−1 to allow some distance to the determined spontaneous resistance frequencies. […] All other ADEPs were used from DMSO stock solutions kept at −20 °C.

In another data set the test system is B. subtilis 168. Nature of the data set: microbe, parasite or virus in culture. It counts as cell-based, Bacillus subtilis. The conditions noted are these: broth microdilution, Mueller-Hinton broth (without cation adjustment), CLSI, inoculum 5×10^4 CFU mL^−1, wild type. The method, then: as §1
A further data set has as its system E. faecalis ATCC 29212. Nature of the data set: microbe, parasite or virus in culture. The data set is classed as cell-based, Enterococcus faecalis. The conditions noted are these: broth microdilution, Mueller-Hinton broth (without cation adjustment), CLSI, inoculum 5×10^4 CFU mL^−1, wild type. The method, then:
as §1

In data set [2] the test system is S. aureus 133. Nature of the data set: Spontaneous resistance rate on ADEP-containing agar. The data set is classed as cell-based, Staphylococcus aureus. The conditions noted are these: ADEP exposure 4× MIC in Mueller-Hinton agar; 5×10^6 cells plated, colonies counted after 24 h at 37 °C. The method, then:
(§2) Screening for ADEP‐resistant mutants and determination of resistance rates: Single colonies of wild‐type strains grown on Mueller‐Hinton agar plates overnight were suspended in sterile saline and a final inoculum of 5×10^6 cells was spread on plates supplemented with different ADEP congeners at 4× and 10× the MIC. For B. subtilis strain 3xclpP, ADEP7‐containing Mueller‐Hinton agar plates were additionally supplemented with 1 mM IPTG. Resistant colonies were counted after 24 h at 37 °C and colonies were randomly chosen for MIC determinations and sequencing. Mutations in the clpP gene of the respective isolated mutants were analysed by amplifying the clpP gene (and upstream promoter region) by PCR and sequencing of the resulting PCR amplicons (LGC genomics). Sequencing data were analysed by using SnapGene software (GSL Biotech).

Data set [3] relates to S. aureus ATCC 29213. The data set is described as above. It counts as cell-based, Staphylococcus aureus. The conditions noted are these: ADEP exposure 4× MIC in Mueller-Hinton agar; 5×10^6 cells plated, colonies counted after 24 h at 37 °C. The protocol:
as §2

For the next data set, the system named is S. aureus. The data set can be described thus: MIC against S. aureus, summary of Table 1. The settings on record: text summary of Table 1, strain not named. The data set is classed as cell-based, Staphylococcus aureus. The protocol:
as §1

Data set [4] has as its system S. aureus ATCC 29213. The data set can be described thus: microbe, parasite or virus in culture. The data set is classed as cell-based, Staphylococcus aureus. The conditions noted are these: broth microdilution, Mueller-Hinton broth (without cation adjustment), CLSI, inoculum 5×10^4 CFU mL^−1, wild type. The protocol: as §1
The next data set concerns E. faecalis 27159. It counts as cell-based, Enterococcus faecalis. The conditions noted are these: broth microdilution, Mueller-Hinton broth; wildtype. The protocol: as §1
The test system of the next data set is S. pyogenes Wacker. The data set is classed as cell-based, Streptococcus pyogenes. The conditions noted are these: broth microdilution, Mueller-Hinton broth; wildtype. The method, then: as §1
The test system of a further data set is S. pneumoniae G9A. It counts as cell-based, Streptococcus pneumoniae. The settings on record: broth microdilution, Mueller-Hinton broth; wildtype. The protocol: as §1
The test system of another data set is E. faecalis RC1. The data set is classed as cell-based, Enterococcus faecalis. The settings on record: resistant clone of E. faecalis 27159; ClpP G100→STOP (A96→V; M99→Y), premature stop. The protocol:
as §1, §2

Another data set has as its system E. faecalis RC2. The data set is classed as cell-based, Enterococcus faecalis. The conditions noted are these: resistant clone of E. faecalis 27159; ClpP H123→Q, active site. The method, then:
as §1, §2

A further data set concerns E. faecalis RC3. It counts as cell-based, Enterococcus faecalis. The conditions noted are these: resistant clone of E. faecalis 27159; ClpP G74→D (ClpP core; α3). The method, then:
as §1, §2

A further data set concerns E. faecalis RC4. The data set is classed as cell-based, Enterococcus faecalis. The conditions noted are these: resistant clone of E. faecalis 27159; ClpP S43→STOP, premature stop. The method, then: as §1, §2
For another data set, the system named is E. faecalis RC5. The data set is classed as cell-based, Enterococcus faecalis. The settings on record: resistant clone of E. faecalis 27159; ClpP A180→V (C-terminus; α7). The protocol:
as §1, §2

The subject of a further data set is E. faecalis RC6. The data set is classed as cell-based, Enterococcus faecalis. The conditions noted are these: resistant clone of E. faecalis 27159; ClpP R147→H (equatorial interface; α5). The protocol: as §1, §2
Another data set concerns E. faecalis RC7. The data set is classed as cell-based, Enterococcus faecalis. The conditions noted are these: resistant clone of E. faecalis 27159; ClpP G68→D (ClpP core). The method, then:
as §1, §2

For another data set, the system named is E. faecalis RC8. The data set is classed as cell-based, Enterococcus faecalis. The conditions noted are these: resistant clone of E. faecalis 27159; ClpP D170→Y, oligomerisation sensor. The protocol:
as §1, §2

A further data set has as its system S. pyogenes RC1. The data set is classed as cell-based, Streptococcus pyogenes. The conditions noted are these: resistant clone of S. pyogenes Wacker; Y insertion after N40 (ClpP core; α2). The protocol:
as §1
as §2, with “Resistant colonies were counted after 24 h at 37 °C and colonies were randomly chosen for MIC determinations and sequencing.” left out

The subject of the next data set is S. pyogenes RC2. It counts as cell-based, Streptococcus pyogenes. The conditions noted are these: resistant clone of S. pyogenes Wacker; ClpP L46→P (ClpP core; α2). The method, then: as §1
as §2, with “Resistant colonies were counted after 24 h at 37 °C and colonies were randomly chosen for MIC determinations and sequencing.” left out

The subject of a further data set is S. pneumoniae RC1. It counts as cell-based, Streptococcus pneumoniae. The settings on record: resistant clone of S. pneumoniae G9A; ClpP A94→G (ClpP core; β4). The protocol:
as §1, §2

Another data set concerns S. pneumoniae RC2. The data set is classed as cell-based, Streptococcus pneumoniae. The settings on record: resistant clone of S. pneumoniae G9A; ClpP START→I, no expression. The protocol:
as §1, §2

A further data set deals with S. pneumoniae RC3. The data set is classed as cell-based, Streptococcus pneumoniae. The settings on record: resistant clone of S. pneumoniae G9A; ClpP R171→H, oligomerisation sensor. The protocol: as §1, §2
For the next data set, the system named is B. subtilis RC13. It counts as cell-based, Bacillus subtilis. The settings on record: resistant clone of B. subtilis 168; ClpP I93→STOP, premature stop. The method, then:
as §1, §2

The next data set deals with B. subtilis RC14. The data set is classed as cell-based, Bacillus subtilis. The settings on record: resistant clone of B. subtilis 168; ClpP G107→S (ClpP core). The protocol:
as §1, §2

For the next data set, the system named is B. subtilis RC15. It counts as cell-based, Bacillus subtilis. The conditions noted are these: resistant clone of B. subtilis 168; ClpP G69→S (ClpP core). The method, then: as §1, §2
The next data set relates to B. subtilis RC16. It counts as cell-based, Bacillus subtilis. The conditions noted are these: resistant clone of B. subtilis 168; ClpP I44→F (ClpP core; α2). The protocol:
as §1, §2

The next data set concerns B. subtilis RC17. The data set is classed as cell-based, Bacillus subtilis. The settings on record: resistant clone of B. subtilis 168; ClpP D172→V, active site. The method, then:
as §1, §2

The test system of the next data set is B. subtilis RC18. It counts as cell-based, Bacillus subtilis. The conditions noted are these: resistant clone of B. subtilis 168; ClpP L190→S, ADEP binding site. The method, then:
as §1, §2

In a further data set the test system is B. subtilis RC19. The data set is classed as cell-based, Bacillus subtilis. The settings on record: resistant clone of B. subtilis 168; ClpP Y183→C (C-terminus; α7). The protocol:
as §1, §2

Data set [5] in a line: Stability of dissolved compound. The data set is classed as physicochemical. The settings on record: dissolved in DMSO; reason for fresh dissolution before MIC determination. The method, then: as §1
Data set [6] has as its system B. subtilis, Enterococcus faecium, E. faecalis, S. pneumoniae, and Streptococcus pyogenes. The data set can be described thus: Spontaneous resistance frequency, further Firmicutes. It counts as cell-based. The conditions noted are these: same range as the S. aureus resistance rates (10^−6). The method, then:
as §2

In brackets after ≈: the same amount, converted by molar mass. Like-named read-outs stand apart in the source and are kept apart here. Positions of bridges follow the written chain, without caps; N, C: chain ends. Non-standard residues stand in square brackets, D forms with d. Residues, ends and D or L forms follow the SMILES beside them. *: point of attachment. Octatrienoyl(2E,4E,6E) = C/C=C/C=C/C=C/C(=O)*; Pro(4R-Me) = C[C@H]1CN[C@H](C(=O)O)C1; NMeA = CN[C@@H](C)C(=O)O; X1 = CCC/C=C/C(=O)*

In the case of `CCC/C=C/C(=O)N[C@@H](Cc1ccccc1)C(=O)N[C@H]1COC(=O)[C@@H]2CCCN2C(=O)[C@H](C)NC(=O)[C@H](C)N(C)C(=O)[C@@H]2CCCN2C1=O` [ADEP7] (X1-FSP[NMeA]AP; ester 2-C), the MIC in the data set on S. aureus 133 [1] was 4 µg/mL (≈ 5.88 µM); with B. subtilis 168, 0.5 µg/mL (≈ 0.734 µM); in the data set with E. faecalis ATCC 29212, 2 µg/mL (≈ 2.94 µM). The Resistance rate was 4×10^−6 in the data set with S. aureus 133 [2] and 6×10^−7 in the data set on S. aureus ATCC 29213 [3]. Also, the “minimal inhibitory concentration (MIC) against S. aureus” value in the data set with S. aureus came to 8 µg/mL (≈ 11.8 µM).
With `C/C=C/C=C/C=C/C(=O)N[C@@H](Cc1ccccc1)C(=O)N[C@H]1COC(=O)[C@@H]2C[C@@H](C)CN2C(=O)[C@H](C)NC(=O)[C@H](C)N(C)C(=O)[C@@H]2CCCN2C1=O` [ADEP1] ({Octatrienoyl(2E,4E,6E)}-FSP[NMeA]A[Pro(4R-Me)]; ester 2-C), the MIC against S. aureus 133 [1] amounted to 0.5 µg/mL (≈ 0.696 µM); against S. aureus ATCC 29213 [4] it was 1 µg/mL (≈ 1.39 µM); against B. subtilis 168, 0.063 µg/mL (≈ 0.0876 µM); against E. faecalis ATCC 29212 it was 0.063 µg/mL (≈ 0.0876 µM); in the data set with E. faecalis 27159, 0.12 µg/mL (≈ 0.167 µM); in the data set with S. pyogenes Wacker, 0.12 µg/mL (≈ 0.167 µM). Further, the MIC in the data set with S. pneumoniae G9A is 0.12 µg/mL (≈ 0.167 µM); against E. faecalis RC1, greater than 64 µg/mL; in the data set with E. faecalis RC2, greater than 64 µg/mL; with E. faecalis RC3, greater than 64 µg/mL; with E. faecalis RC4 it was greater than 64 µg/mL; with E. faecalis RC5 it was greater than 64 µg/mL. Besides, the MIC in the data set with E. faecalis RC6 is greater than 64 µg/mL; in the data set on E. faecalis RC7, greater than 64 µg/mL; in the data set with E. faecalis RC8 it was greater than 64 µg/mL; in the data set on S. pyogenes RC1 it was greater than 32 µg/mL; in the data set on S. pyogenes RC2, greater than 32 µg/mL; in the data set with S. pneumoniae RC1 it was greater than 32 µg/mL. Besides, the MIC against S. pneumoniae RC2 was greater than 32 µg/mL; in the data set on S. pneumoniae RC3, greater than 32 µg/mL; against B. subtilis RC13, greater than 64 µg/mL; in the data set on B. subtilis RC14, 0.5 µg/mL (≈ 0.696 µM); with B. subtilis RC15, greater than 64 µg/mL; against B. subtilis RC16 it was 8 µg/mL (≈ 11.1 µM). Moreover, the MIC in the data set with B. subtilis RC17 is greater than 64 µg/mL; against B. subtilis RC18, 16 µg/mL (≈ 22.3 µM); against B. subtilis RC19, greater than 64 µg/mL. For the same molecule, the stability entry in data set [5] is reported as “rather unstable”. Moreover, in data set [6], the spontaneous resistance frequencies result is listed as “in the same range”.
For the molecule `C[C@H]1c2cccc(O)c2C(=O)C2=C(O)[C@]3(O)C(=O)C(C(N)=O)=C(O)[C@@H](N(C)C)[C@@H]3[C@@H](O)[C@@H]21` [Doxycycline, reference compound], the MIC in the data set with S. aureus 133 [1] (Staphylococcus aureus, 133, read-out: MIC) was 0.06 µg/mL (≈ 0.135 µM); in the data set with S. aureus ATCC 29213 [4] (Staphylococcus aureus, ATCC29213, read-out: MIC) it was 0.06 µg/mL (≈ 0.135 µM); with B. subtilis 168 (Bacillus subtilis, 168, read-out: MIC), 0.125 µg/mL (≈ 0.281 µM); in the data set with E. faecalis ATCC 29212 (Enterococcus faecalis, ATCC29212, read-out: MIC), 4 to 8 µg/mL (≈ 9 to 18 µM).

For the origin of these results see paper PMC7496096, “Functional Characterisation of ClpP Mutations Conferring Resistance to Acyldepsipeptide Antibiotics in Firmicutes” (Chembiochem, 2020).
